In patent publication US20260364056A1, “METHODS OF TREATMENT OF NON-PANCREATIC GASTROINTESTINAL CANCERS” (IONCTURA bv, priority 2023, published 2026):

Legend:
pancreatic cancer = settings: compared with gemcitabine; cited from earlier work
[1] = test system: apoptosis-related proteins; experiment: Human apoptosis antibody array; assay type: cell-based; settings: 12 μM, 24 h, vs untreated cells
Method: The Human Apoptosis Antibody Array Kit (ab134001, Abcam) was used to detect the apoptosis pathway. Briefly, cells were lysed and each membrane was incubated at 4 °C overnight with 500 μg of total extracted protein. Membranes were then washed and incubated overnight at 4 °C with Biotin-conjugated Anti-Cytokines. After an incubation of the membranes with HRP-streptavidin for 2 h at room temperature, chemiluminescence was detected using ChemiDoc XRS+ (Bio-Rad, Hercules, CA, USA). The images were analysed with Image Lab 5.2.1.
The representative images were randomly selected from at least 3 independent experiments.
To further explore the activity of Compound 1 on gastrointestinal cancer cells, the effectiveness on cell apoptosis was investigated. Following incubation with Compound 1, cells underwent morphological changes of cell shrinkage and cytoplasmic vacuolization (FIG. 1C). An early event in apoptosis is represented by the loss of plasma membrane asymmetry, resulting in the translocation of phosphatidylserine (PS) from the inner to the outer plasma membrane leaflet. Exposed PS on the cell surface can be used to measure apoptosis by the binding with Annexin V. KKU-M213, HLE and HT-29 cells were incubated with increasing concentrations of Compound 1 (3, 9 and 12 μM). After 4 hours, cells were stained with a FITC-Annexin V antibody and fixed. […]

HLE cells = experiment: Wound healing assay; assay type: cell-based; settings: Homo sapiens, serum-free, read-out: inhibition of cell migration
Method: (§1) Cells were seeded in a 12-well plate in 10% FBS medium and grown to reach a 80-90% confluence. Then, a scratch was made on the cell monolayer by using a p200 pipette tip. The plate was washed with sterile PBS to remove the debris and on the outer bottom of the plate were created markings with a tip marker, used as reference points. Each cell line was incubated with medium without FBS and containing increasing concentrations of Compound 1 (1-3-9-12 μM). Images were acquired at 0, 24 and 48 h by using a confocal microscope Nikon Eclipse Ti2 in bright field microscope and analysed with image-J. Image-J software was used to measure the scratched area. Cell migratory ability of wound-healing was assessed using the following formula: [(wound area at 0 h)−(wound area at indicated time)]/(wound area at 0 h).
(§2) Images were taken at time 0, 24 h and 48 h and cell migration into the cell-free region (outlined) was quantified.
(§3) Tumor progression is characterized by an enhanced cell motility and invasiveness. To expand upon the knowledge of the effects of Compound 1 on HLE, KKU-m213 and HT-29 cells, their migratory activity was assessed when treated with Compound 1 by using both, a wound healing and a transwell migration assay. Cells were seeded in a 12-well plate and, when a confluent monolayer was reached, an artificial gap was generated between the cells using a pipette tip. […]

KKU-M213 cells = experiment: Wound healing assay; assay type: cell-based; settings: Homo sapiens, serum-free, respect to control, after 24 h and 48 h, p<0.05, read-out: reduction in wound closure
Method: as §1, §2, §3

SMILES: C[C@H](NC(=O)CCc1nc2cccnc2n1Cc1ccc(OC(F)(F)F)cc1)c1ccc(Cl)cc1 [Compound 1, N-[(S)-1-(4-chloro-phenyl)-ethyl]-3-[3-(4-trifluoromethoxy-benzyl)-3H-imidazo[4,5-b]pyridin-2-yl]-propionamide]
- activity in pancreatic cancer model (pancreatic cancer): comparable activity with gemcitabine
- differential expression of apoptosis-related proteins [1]: upregulating pro-apoptosic proteins including Bim, Caspase-3 and -8, HTRA, DR6, Fas, p53 and SMAC
- inhibition at 3 µM (HLE cells): 40%
- inhibition at 9 µM (KKU-M213 cells): ~50%
